Measurements published in PubChem BioAssay (NCI).
Where “and” joins values, the source holds several entries; their conditions need not be identical. Equal entries are not always repeated.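 Cells were grown in 96-well plates and exposed to each compound for 48 hours at five concentrations; endpoints were interpolated linearly between bracketing concentrations, or set to the highest concentration if not reached. GI50 = concentration required for 50% inhibition of growth. TGI: total growth inhibition.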

Experiments:
Experiment in all cases: NCI anticancer screen, dose series, 48 h
SK-OV-3 ovarian = tested on: SK-OV-3 ovarian
SK-MEL-28 melanoma = tested on: SK-MEL-28 melanoma
LOX IMVI melanoma = tested on: LOX IMVI melanoma
A498 renal = tested on: A498 renal
NCI/ADR-RES ovarian = tested on: NCI/ADR-RES ovarian
SF-268 CNS = tested on: SF-268 CNS
SF-295 CNS = tested on: SF-295 CNS
UO-31 renal = tested on: UO-31 renal
NCI-H226 lung = tested on: NCI-H226 lung
MALME-3M melanoma = tested on: MALME-3M melanoma

Row | Compound | GI50 (SK-OV-3 ovarian) | TGI (SK-OV-3 ovarian) | GI50 (SK-MEL-28 melanoma) | TGI (SK-MEL-28 melanoma) | GI50 (LOX IMVI melanoma) | TGI (LOX IMVI melanoma) | GI50 (A498 renal) | TGI (A498 renal) | GI50 (NCI/ADR-RES ovarian) | TGI (NCI/ADR-RES ovarian) | GI50 (SF-268 CNS) | TGI (SF-268 CNS) | GI50 (SF-295 CNS) | TGI (SF-295 CNS) | GI50 (UO-31 renal) | TGI (UO-31 renal) | GI50 (NCI-H226 lung) | TGI (NCI-H226 lung) | GI50 (MALME-3M melanoma) | TGI (MALME-3M melanoma)
1 | CC[C@H](C)n1cc(C)c2c(C(=O)NCc3c(C)cc(C)[nH]c3=O)cc(-c3ccc(N4CCNCC4)nc3)cc21 | 19.1 µM and 14.6 µM | 33.5 µM and 28 µM | 14.1 µM and 6.51 µM | 27.8 µM and 19.9 µM | 8.89 µM and 6.3 µM | 21.8 µM and 19.4 µM | 15.4 µM and 12.6 µM | 30 µM and 26.9 µM | 35.1 µM and 17.6 µM | > 100 µM and 33.7 µM | 14.7 µM and 13 µM | 29.8 µM and 27.8 µM | 16.2 µM and 14.8 µM | 31.9 µM and 29.3 µM | 15.3 µM and 12.9 µM | 29.6 µM and 27.3 µM | 16.3 µM and 17.3 µM | 36.5 µM and 36.9 µM | 8 µM and 2.51 µM | 21.5 µM and 6.78 µM
2 | CCOC(=O)c1c(C)n2c(=O)cc(C)c3c(OC(C)=O)c(OC(C)=O)cc1c32 | 11.8 µM | 87.5 µM | 4.87 µM | 22.5 µM | 4.52 µM | 22.9 µM | 14 µM | 52.1 µM | 2.69 µM | > 27 µM | 5.26 µM | > 74.1 µM | 5.2 µM | 45.2 µM | 4.6 µM | > 35.8 µM | 10.1 µM | 35.7 µM | 9.93 µM | 35.5 µM
3 | Nc1ccccc1NC(=O)c1ccc(CN2CCC/C(=C\c3cccc(Cl)c3)C2=O)cc1 | 0.626 µM | 26.4 µM | 1.16 µM | 58.9 µM | 0.0664 µM | 2.06 µM | 0.441 µM | 3.66 µM | 0.198 µM | 6.09 µM | 1.41 µM | 6.74 µM | 1.05 µM | 15.2 µM | 1.4 µM | 6.14 µM | 2.01 µM | 7.06 µM | 1.59 µM | 16.4 µM
4 | C=C1CCC2C3(C)COC(c4ccc(SC)cc4)OC3CCC2(C)C1C/C=C1/C(=O)OCC1O (centres undefined) | 16.3 µM | 32 µM | 8.67 µM | 21.1 µM | 1.44 µM | 3.01 µM | 8.64 µM | 22.4 µM | 2.78 µM | 8.18 µM | 6.8 µM | 19.9 µM | 8.14 µM | 23.7 µM | 9.73 µM | 21.9 µM | 7.85 µM | 25.7 µM | 14.9 µM | 32.1 µM
5 | COC(=O)c1ccc([N+](=O)[O-])c(O)c1 |  | > 100 µM |  | > 100 µM |  | > 100 µM |  | > 100 µM |  | > 100 µM |  | > 100 µM |  | > 100 µM |  | > 100 µM |  | > 100 µM |  | > 100 µM
6 | Oc1cc(O)c2c(=S)cc(-c3ccc(Cl)cc3)oc2c1 | 2.77 µM | 18.2 µM | 4.15 µM | 18.4 µM | 2.92 µM | 11.6 µM | 1.22 µM | 11.7 µM | 2.8 µM | 10.7 µM | 3.23 µM | 21.3 µM | 5.67 µM | 22.9 µM | 1.21 µM | 8.58 µM | 4.97 µM | 32.5 µM | 2.01 µM | 6.71 µM
7 | N#Cc1c(NC(=O)CN2CCOCC2)sc2c1CCCC2 | > 25 µM | > 25 µM | > 25 µM | > 25 µM | > 25 µM | > 25 µM | 3.2 µM | > 25 µM | > 25 µM | > 25 µM | > 25 µM | > 25 µM | > 25 µM | > 25 µM | > 25 µM | > 25 µM | > 25 µM | > 25 µM | > 25 µM | > 25 µM
8 | Cc1nc(/N=C(\N)NC(=O)Nc2ccccc2Cl)sc1C | 0.735 µM | 5.54 µM | 0.916 µM | > 100 µM | 0.533 µM | > 100 µM | 0.249 µM | 1.1 µM | 0.271 µM | 3.28 µM | 1.35 µM | > 100 µM | 0.363 µM | 2.7 µM | 0.857 µM | 6.49 µM | 1.15 µM | 14.9 µM | 0.643 µM | 4.79 µM
9 | O=C1/C(=C\c2coc3ccccc3c2=O)c2ccccc2N1c1c(Cl)cccc1Cl | 35.6 µM | > 100 µM | 3.91 µM | > 100 µM | 1.52 µM | 8.91 µM | 4.35 µM | > 100 µM | 3.42 µM | > 100 µM | 3.41 µM | > 100 µM | 4.22 µM | > 100 µM | 1.8 µM | 11.9 µM | 20.7 µM | > 100 µM | 2.48 µM | 13 µM
10 | COc1cc([C@@H]2c3cc4c(cc3[C@H](O)[C@H]3COC(=O)[C@H]23)OCO4)cc(OC)c1OC | < 0.01 µM |  | < 0.01 µM | > 100 µM and 50 µM | < 0.01 µM | > 100 µM and 50 µM | < 0.01 µM |  |  | < 0.005 µM | < 0.01 µM | > 63.4 µM and 50 µM and > 39.2 µM | < 0.01 µM |  | < 0.005 µM | > 100 µM and 50 µM and 42.7 µM | < 0.01 µM |  |  | > 100 µM and 50 µM
